From patent US9433663B2, “Mobilization of hematopoietic stem cells” (Children's Hospital Medical Center, priority 2008, dated 2016)

Experiments:
[1] = system: C57Bl/6 mice; test: mobilization of colony-forming progenitors to peripheral blood, CFU-C assay; type: in vivo; conditions: intraperitoneal 2.4 mg/Kg, 40 hrs post administration, in comparison to vehicle control
Protocol: Whether CASIN administration can induce mobilization of HSC/Ps to peripheral blood of C57Bl/6 mice, mimicking the phenotype observed in Cdc42 conditional knockout mice, was evaluated. First of all, mobilization of hematopoietic progenitor cells was examined by CFU-C assays functionally (FIG. 3a). […] Secondarily, to further explore the ability of CASIN to mobilize LT-HSC which is crucial for long-term repopulation of the mobilized cells, serial transplantations were carried out, where 20 million PB from CASIN-mobilized C57Bl/6 mice was transplanted into primary recipient of NOD/SCID mice, and subsequent secondary and tertiary transplants were finished as well using prior BMs (FIG. 3c). Donor chimerisms were assessed by using H2K^b congenic marker which is positive for donors of C57Bl/6 strain and negative for recipients of NOD/SCID strain. […] Therefore, the studies show CASIN can efficiently mobilize colony-forming hematopoietic progenitors and LT-HSCs with self-renewal and multi-lineage differentiation capacity. Thirdly, to further investigate the potential of CASIN to vacate the BM niche after mobilization, six-color staining of the BM cells was performed from C57Bl/6 mice with or without CASIN treatment followed by FACS analysis. […] Therefore, a transient decrease in BM and a concomitant increase in peripheral organs of HSCs would be beneficial to facilitating the subsequent HSC transplantation.
To determinate the hematopoietic progenitor content in the PB of mobilized C57Bl/6 mice, colony-forming unit assay was performed as described previously. Briefly, 200 ul PB was plated in triplicate into methylcellulose (MethocultM3434; StemCell Technology, Vancouver, BC, Canada). Colonies were then counted 7 d later.

[2] = system: human CD34^+ umbilical cord blood cells; test: migration of human CD34+ HCB cells; type: cell-based; conditions: 5 μM
Protocol: FIG. 4C. relative migration of human CD34^+ cord blood cells in the presence of CASIN at dose of 5 μM in comparison to that of control.
To begin to study potential utility of CASIN in human hematopoietic stem cell mobilization, a series of cellular assays were carried out to determine the effects on human CD34^+ umbilical cord blood cells (HCBs). […] The effects of CASIN on human hematopoietic cell mobilization was therefore tested using a well established preclinical in vivo model (NOD/SCID-Hcb) of human hematopoietic function, where fresh CD34^+ hCB cells were transplanted into sub-lethally irradiated NOD/SCIDs by intrafemoral injection, and repopulated and maintained human hematopoietic reconstitution in the bone marrow of NOD/SCID recipient mice (FIG. 9b, FIG. 11) (Larochelle, A. et al. Nat Med 2, 1329-1337 (1996); Bhatia, M., et al. Proc Natl Acad Sci USA 94, 5320-5325 (1997)). Intravenous injections of CASIN were applied when human cells were well engrafted in the NOD/SCID recipients.

[3] = system: LT-HSCs; test: Example 9 double-labeling of LT-HSC localization in the niche; type: in vivo, mice; conditions: 48 hours or earlier after mobilization
Protocol: These studies use a double-labeling technique to monitor the localization change of LT-HSCs upon mobilization by CASIN.
AMD3100 and G-CSF induced mobilization are used as positive controls, while the control medium is used as a negative control. DBA/2, PeP3b, and C57Bl/6 mice are used in parallel to test the effects of variable mobilization capacity on the movement of LT-HSCs.
Basically, mice are fed BrdU (0.8 mg/ml) in drinking water for 10 days, followed by a chase period of seventy days, after which only the slow cycling LT-HSCs are found to retain the BrdU-label. At the end of the chase period of BrdU labeling, CASIN, AMD3100, G-CSF, or control is administrated on the mice and 3H-TdR is pulse-labeled 1 h before sacrificing the mice. Mice are sacrificed at different time points post administration of mobilizers or control in order to reflect the kinetic changes of HSC localization upon mobilization. And then bone sections are immunochemically stained with anti-BrdU antibody and alkaline phosphatase-labeled secondary IgG, followed by visualization with red substrate. In the meantime, autoradiography is performed to visualize cell incorporated with 3H-TdR. A cell is considered to be double-labeled if it contains greater than 5 silver grains per nucleus over a bright nuclear pattern of red staining.

[4] = molecular target: Rho (Homo sapiens, UniProt P61586); test: nucleotide exchange: Large-induced exchange of mant-GDP with Rho; type: biochemical
Description: For example, even at 10 times the IC50 of Cdc42, a 50% inhibition of the association of mant-GDP with Rac or Rho was not achieved.

[5] = system: N-RasMA93 cells; test: F-actin reorganization of N-RasMA93 leukemia cells; type: cell-based, human; conditions: in vitro
Protocol: FIG. 5A. SDF-1α induced F-actin polymerization without or with gradient CASIN pre-treatments was determined by MFI using FACS analysis.
Like normal HSCs, their malignant counterpart, leukemia initiating cells (LICs) reside in their BM niches that provide the structural and physiological conditions supporting their survival and growth. LICs are resistant to traditional chemotherapy by interacting with their BM microenvironment, which are the culprits of leukemia relapses after a period of remission induced by chemotherapy. Detachment of LICs from their niche by CASIN would be a valuable supplementary therapy to the traditional cancer therapies (e.g., chemotherapies). First of all, in vitro effects of CASIN were examined in adhesion, migration, and F-actin polymerization of LICs, each of which is independently important for the retention of LICs in BM niches. Retroviral transduction of an MLL-AF9 fusion cDNA together with N-Ras oncogene into normal human CD34^+cord blood cells led to the establishment of cultures of N-Ras-MA93 cells that can initiate acute myeloid leukemia in NOG mice. […] To address it, a human AML model was set up by transplanting N-RasMA93 cells into NOG mice intravenously.

[6] = system: HSCs (IL7Ra^−Lin^−Sca-1^+c-Kit^+) in the BM; test: six-color FACS of BM HSPC compartments after treatment; type: in vivo; conditions: after CASIN injection, C57Bl/6 mice
Protocol: Whether CASIN administration can induce mobilization of HSC/Ps to peripheral blood of C57Bl/6 mice, mimicking the phenotype observed in Cdc42 conditional knockout mice, was evaluated. First of all, mobilization of hematopoietic progenitor cells was examined by CFU-C assays functionally (FIG. 3a). […] Secondarily, to further explore the ability of CASIN to mobilize LT-HSC which is crucial for long-term repopulation of the mobilized cells, serial transplantations were carried out, where 20 million PB from CASIN-mobilized C57Bl/6 mice was transplanted into primary recipient of NOD/SCID mice, and subsequent secondary and tertiary transplants were finished as well using prior BMs (FIG. 3c). Donor chimerisms were assessed by using H2K^b congenic marker which is positive for donors of C57Bl/6 strain and negative for recipients of NOD/SCID strain. […] Therefore, the studies show CASIN can efficiently mobilize colony-forming hematopoietic progenitors and LT-HSCs with self-renewal and multi-lineage differentiation capacity. […]
To immunophenotypically profile the multi-compartments of HSPCs in BM, FACS analysis of six-color staining was carried out as previously. […] The sub-compartments of HSC, LT-HSC, ST-HSC, and CLP were quantified accordingly.

Chain of Rho (P61586 whole entry): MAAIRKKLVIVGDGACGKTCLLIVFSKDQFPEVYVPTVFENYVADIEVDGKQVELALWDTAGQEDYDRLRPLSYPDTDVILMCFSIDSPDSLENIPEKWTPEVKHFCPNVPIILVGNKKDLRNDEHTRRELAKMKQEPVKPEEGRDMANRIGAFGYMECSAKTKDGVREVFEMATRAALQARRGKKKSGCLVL

## OCCNC1CCCc2c1[nH]c1ccc(-c3ccccc3)cc21 (stereo not shown) [CASIN]
[1]
  mobilization of colony-forming progenitors to the peripheral blood: more than six-fold
[2]
  migration activity of human progenitors: significantly dampened
[3]
  number of BrdU-labeled LT-HSC in bone marrow niche: reduced
[4]; FIG. 6
  Large induced nucleotide exchange of mant-GDP with Rho: did not affect
[4]; at 10 times the IC50 of Cdc42
  inhibition of the association of mant-GDP with Rho: < 50%
[5]
  F-actin reorganization capacity of N-RasMA93 cells: significantly impaired
[6]
  number of genotypic HSCs (IL7Ra^−Lin^−Sca-1^+c-Kit^+) in the BM: decreased significantly
